From patent publication US10696665B2, “Mutant IDH1 inhibitors” (Eli Lilly and Company, priority 2016, dated 2020) come the findings set out here.

Molecules are shown by their SMILES.

By IC50 is commonly meant the concentration that inhibits the measured activity by half. High values mean weaker potency in that assay, low ones greater potency in that assay.

The target of this assay is Wild-type IDH1 (Homo sapiens (Human), UniProt O75874). Put plainly: Biochemical assay for wild-type IDH1 enzyme (isocitrate to αKG). Conditions: mean ± SEM. As for the experimental part: IDH1 and IDH2 enzymes catalyze the conversion of isocitrate to αKG. Wild-type IDH1 (National Center for Biotechnology Information, Accession: NP_001269316.1) and IDH2 (National Center for Biotechnology Information, Accession: EAX02082.1) proteins containing N-terminal His-tag are expressed in E. coli and purified using nickel affinity chromatography by methods commonly used and well known to those skilled in the art. The enzyme assays are carried out in V-bottom 96 well polypropylene plates containing 100 mM Tris-HCl buffer at pH 7.5, 1 mM DTT, 0.005% TRITON™ X-100, 120 mM NaCl. For the IDH1 wild-type assay isocitrate, NADP^+ and MnCl2 are included at the concentrations of 85 μM, 50 μM and 20 μM respectively. For the IDH2 wild-type assay isocitrate, NADP^+ and MnCl2 are included at the concentrations of 30 μM, 50 μM and 10 μM respectively. Inhibitors dissolved in a DMSO stock solution are diluted in the reaction mixture at a final DMSO concentration of 4%. The enzyme assay is terminated (quenched) by adding ACN (50:50) containing d (d6-αKG) as an internal standard for mass spectrometry analysis. Ten microliters of reaction mixture is combined with 100 μL of water, 50 μL of 1 M O-benzylhydroxylamine in pyridine buffer (8.6% pyridine, pH 5), and 50 μL of 1 M EDC in pyridine buffer. Following derivatization at room temperature for one hour, samples are extracted with EtOAc (600 μL). […] of the upper layer is removed, dried under heated nitrogen, and reconstituted with MeOH/water (1:1) (100 μL). Ten μL of derivatized sample is injected onto an LC-MS system consisting of a Shimadzu Prominence 20A HPLC system and a Thermo Quantum Ultra™ triple quadrupole mass spectrometer. Analytes are separated on a Waters XBridge™ C18 column (2.1×50 mm, […]) with a flow rate of 0.6 mL/minute. Mobile phase A is 0.1% formic acid in water and mobile phase B is MeOH. The αKG signal detected is transformed into analyte concentration using a calibration curve generated using known αKG concentrations. […] IC50 values are obtained from the individual % inhibition values at different compound concentrations using a 4-parameter equation. These calculations are carried out using Activity Base (IDBS) or Screener (Genedata) data analysis programs.
Sequence of Wild-type IDH1 (O75874 whole entry): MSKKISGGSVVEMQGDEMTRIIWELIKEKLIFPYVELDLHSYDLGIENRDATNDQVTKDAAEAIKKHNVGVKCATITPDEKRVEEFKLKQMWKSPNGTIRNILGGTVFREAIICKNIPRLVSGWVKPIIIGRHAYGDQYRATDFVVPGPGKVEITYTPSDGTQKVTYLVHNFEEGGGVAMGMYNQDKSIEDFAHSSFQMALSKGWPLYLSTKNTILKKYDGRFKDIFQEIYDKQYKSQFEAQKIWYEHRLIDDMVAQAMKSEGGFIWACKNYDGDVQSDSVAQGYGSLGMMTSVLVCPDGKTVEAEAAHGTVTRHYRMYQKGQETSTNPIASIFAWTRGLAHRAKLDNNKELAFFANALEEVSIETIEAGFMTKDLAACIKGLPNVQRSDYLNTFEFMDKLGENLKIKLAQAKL

As for `C=CC(=O)N1CCN(Cc2ccc([C@H](C)Nc3ncc(F)c(N4C(=O)OC[C@@H]4C(C)C)n3)cc2)CC1` [Example 5, (S)-3-(2-(((S)-1-(4-((4-acryloylpiperazin-1-yl)methyl)phenyl)ethyl)amino)-5-fluoropyrimidin-4-yl)-4-isopropyloxazolidin-2-one], 2460 ± 300 nM corresponded to half-maximal inhibition (IC50).
For `C=CC(=O)N1CCN(Cc2ccc([C@H](C)Nc3nccc(N4C(=O)OC[C@@H]4CC)n3)cc2)CC1` [Example 2, (S)-3-(2-(((S)-1-(4-((4-acryloylpiperazin-1-yl)methyl)phenyl)ethyl)amino)pyrimidin-4-yl)-4-ethyloxazolidin-2-one], the IC50 came to 3150 ± 70 nM.
Take `C=CC(=O)N1CCN(Cc2ccc([C@H](C)Nc3nc(F)cc(N4C(=O)OCC4(C)C)n3)cc2)CC1` [Example 11, (S)-3-(2-((1-(4-((4-acryloylpiperazin-1-yl)methyl)phenyl)ethyl)amino)-6-fluoropyrimidin-4-yl)-4,4-dimethyloxazolidin-2-one]: half-maximal inhibition (IC50) was put at 2200 nM.
Under `C=CC(=O)N1CCN(C(CC2CC2)c2ccc([C@H](C)Nc3nccc(N4C(=O)OC[C@@H]4[C@@H](C)O)n3)cc2)CC1` (stereo partly shown) [Example 26] stands 145 nM.
Under `C=CC(=O)N1CCN(Cc2ccc([C@H](C)Nc3nccc(N4C(=O)OCC4(C)C)n3)cc2)CC1` [Example 4, (S)-3-(2-((1-(4-((4-acryloylpiperazin-1-yl)methyl)phenyl)ethyl)amino)pyrimidin-4-yl)-4,4-dimethyloxazolidin-2-one] stands 6760 ± 1350 nM; under `C=CC(=O)N1CCN(Cc2ccc([C@H](C)Nc3nccc(N4C(=O)OC[C@@H]4C)n3)cc2)CC1` [Example 3, (S)-3-(2-(((S)-1-(4-((4-acryloylpiperazin-1-yl)methyl)phenyl)ethyl)amino)pyrimidin-4-yl)-4-methyloxazolidin-2-one], 15500 ± 500 nM; under `C=CC(=O)N1CCN(Cc2ccc([C@H](C)Nc3nccc(N4C(=O)OC[C@@H]4C(C)C)n3)cc2)CC1` [Example 1, (S)-3-(2-(((S)-1-(4-((4-Acryloylpiperazin-1-yl)methyl)phenyl)ethyl)amino)pyrimidin-4-yl)-4-isopropyloxazolidin-2-one], 1560 ± 200 nM.
